In patent US11458123B2 (Arvinas, Inc., priority 2016, dated 2022):

What follows are compounds tested on tau protein (assay: Tau protein in vitro degradation assay (Western blot, Tau-13 antibody)). Settings: SK-N-SH cells; 72 hours of incubation; tested at 300 nM, 100 nM, 33 nM and 11 nM; Western blot, Tau-13 antibody.
Assay type: cell-based, human
Procedure, shortened: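 Tau degradation read by Tau-13 Western blot (detects all human tau forms) of SDS-PAGE-resolved lysates from SK-N-SH cells. Cells were plated at least 18 h before 72 h exposure to PROTACs at either 1000/300/100 nM or 300/100/33/11 nM.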
`Cn1c2ccncc2c2ccc(-c3ccc(O[C@H]4C[C@@H](Oc5ccc(C#CCOC6CN(c7ccc8c(c7)C(=O)N(C7CCC(=O)NC7=O)C8=O)C6)nc5)C4)nc3)cc21` (stereo partly drawn) [Compound 159, 2-(2,6-dioxopiperidin-3-yl)-5-(3-((3-(5-((1 s,3 s)-3-((5-(5-methyl-5H-pyrido[4,3-b]indol-7-yl)pyridin-2-yl)oxy)cyclobutoxy)pyridin-2-yl)prop-2-yn-1-yl)oxy)azetidin-1-yl)isoindoline-1,3-dione] was tested, and the “Degradation activity* (highest amount of degradation observed at any dosage; tau protein remaining)” value was “C (>80% tau protein remaining after 72 hours of incubation with the test compound)”.
`Cn1c2ccncc2c2ccc(-c3ccc(O[C@H]4C[C@@H](Oc5ccc(CCCOC6CN(c7ccc8c(c7)C(=O)N(C7CCC(=O)NC7=O)C8=O)C6)nc5)C4)nc3)cc21` (stereo partly drawn) [Compound 160, 2-(2,6-dioxopiperidin-3-yl)-5-(3-(3-(5-((1 s,3s)-3-((5-(5-methyl-5H-pyrido[4,3-b]indol-7-yl)pyridin-2-yl)oxy)cyclobutoxy)pyridin-2-yl)propoxy)azetidin-1-yl)isoindoline-1,3-dione] was tested, and the “Degradation activity* (highest amount of degradation observed at any dosage; tau protein remaining)” value was “B (≤80% and >50% tau protein remaining after 72 hours of incubation with the test compound)”.
In the case of `Cn1c2ccncc2c2ccc(-c3ccc(O[C@H]4C[C@H](OCCOCCOCCOC5CN(c6ccc7c(c6)C(=O)N(C6CCC(=O)NC6=O)C7=O)C5)C4)nc3)cc21` (stereo partly drawn) [Compound 161, 2-(2,6-dioxopiperidin-3-yl)-5-(3-(2-(2-(2-((1r,3r)-3-((5-(5-methyl-5H-pyrido[4,3-b]indol-7-yl)pyridin-2-yl)oxy)cyclobutoxy)ethoxy)ethoxy)ethoxy)azetidin-1-yl)isoindoline-1,3-dione], the “Degradation activity* (highest amount of degradation observed at any dosage; tau protein remaining)” value is reported as “C (>80% tau protein remaining after 72 hours of incubation with the test compound)”.
`Cn1c2ccncc2c2ccc(-c3ccc(O[C@H]4C[C@H](OCCCCOCCCCOC5CN(c6ccc7c(c6)C(=O)N(C6CCC(=O)NC6=O)C7=O)C5)C4)nc3)cc21` (stereo partly drawn) [Compound 162, 2-(2,6-dioxopiperidin-3-yl)-5-(3-(4-(4-((1r,3r)-3-((5-(5-methyl-5H-pyrido[4,3-b]indol-7-yl)pyridin-2-yl)oxy)cyclobutoxy)butoxy)butoxy)azetidin-1-yl)isoindoline-1,3-dione] was tested, and the “Degradation activity* (highest amount of degradation observed at any dosage; tau protein remaining)” value was “A (≤50% tau protein remaining after 72 hours of incubation with the test compound)”.
For `Cn1c2ccncc2c2ccc(-c3ccc(O[C@H]4C[C@H](OCCOCCOC5CN(c6ccc7c(c6)C(=O)N(C6CCC(=O)NC6=O)C7=O)C5)C4)nc3)cc21` (stereo partly drawn) [Compound 163, 2-(2,6-dioxopiperidin-3-yl)-5-(3-(2-(2-((1r,3r)-3-((5-(5-methyl-5H-pyrido[4,3-b]indol-7-yl)pyridin-2-yl)oxy)cyclobutoxy)ethoxy)ethoxy)azetidin-1-yl)isoindoline-1,3-dione], the “Degradation activity* (highest amount of degradation observed at any dosage; tau protein remaining)” value was “C (>80% tau protein remaining after 72 hours of incubation with the test compound)”.
`O=C1CCC(N2C(=O)c3ccc(OCCCCCC(=O)N4CCC(O[C@H]5C[C@H](Oc6ccc(-c7ccc8c(c7)[nH]c7ccncc78)cn6)C5)CC4)cc3C2=O)C(=O)N1` (stereo partly drawn) [Compound 164, 5-(6-(4-((1r,3r)-3-(5-(5H-pyrido[4,3-b]indol-7-yl)pyridin-2-yloxy)cyclobutoxy)piperidin-1-yl)-6-oxohexyloxy)-2-(2,6-dioxopiperidin-3-yl)isoindoline-1,3-dione] was tested, and the “Degradation activity* (highest amount of degradation observed at any dosage; tau protein remaining)” value was “C (>80% tau protein remaining after 72 hours of incubation with the test compound)”.
In the case of `O=C1CCC(N2C(=O)c3ccc(OCCCCCOC4CCN(C(=O)[C@H]5C[C@H](Oc6ccc(-c7ccc8c(c7)[nH]c7ccncc78)cn6)C5)CC4)cc3C2=O)C(=O)N1` (stereo partly drawn) [Compound 165, 5-((5-((1-((1r,3r)-3-((5-(5H-pyrido[4,3-b]indol-7-yl)pyridin-2-yl)oxy)cyclobutane-1-carbonyl)piperidin-4-yl)oxy)pentyl)oxy)-2-(2,6-dioxopiperidin-3-yl)isoindoline-1,3-dione], the “Degradation activity* (highest amount of degradation observed at any dosage; tau protein remaining)” value is reported as “C (>80% tau protein remaining after 72 hours of incubation with the test compound)”.
In the case of `O=C1CCC(N2C(=O)c3ccc(OCCCCCOC4CCN(C(=O)[C@H]5C[C@@H](Oc6ccc(-c7ccc8c(c7)[nH]c7ccncc78)cn6)C5)CC4)cc3C2=O)C(=O)N1` (stereo partly drawn) [Compound 166, 5-((5-((1-((1r,3r)-3-((5-(5H-pyrido[4,3-b]indol-7-yl)pyridin-2-yl)oxy)cyclobutane-1-carbonyl)piperidin-4-yl)oxy)pentyl)oxy)-2-(2,6-dioxopiperidin-3-yl)isoindoline-1,3-dione], the “Degradation activity* (highest amount of degradation observed at any dosage; tau protein remaining)” value is reported as “C (>80% tau protein remaining after 72 hours of incubation with the test compound)”.
With `Cn1c2ccncc2c2ccc(-c3ccc(OCCCOc4ccc(C#CCOC5CN(c6ccc7c(c6)C(=O)N(C6CCC(=O)NC6=O)C7=O)C5)nc4)nc3)cc21` (stereo not drawn) [Compound 167, 2-(2,6-dioxopiperidin-3-yl)-5-(3-((3-(5-(3-((5-(5-methyl-5H-pyrido[4,3-b]indol-7-yl)pyridin-2-yl)oxy)propoxy)pyridin-2-yl)prop-2-yn-1-yl)oxy)azetidin-1-yl)isoindoline-1,3-dione] the “Degradation activity* (highest amount of degradation observed at any dosage; tau protein remaining)” value was “C (>80% tau protein remaining after 72 hours of incubation with the test compound)”.
In the case of `Cn1c2ccncc2c2ccc(-c3ccc(OCCCOc4ccc(CCCOC5CN(c6ccc7c(c6)C(=O)N(C6CCC(=O)NC6=O)C7=O)C5)nc4)nc3)cc21` (stereo not drawn) [Compound 168, 2-(2,6-dioxopiperidin-3-yl)-5-(3-(3-(5-(3-((5-(5-methyl-5H-pyrido[4,3-b]indol-7-yl)pyridin-2-yl)oxy)propoxy)pyridin-2-yl)propoxy)azetidin-1-yl)isoindoline-1,3-dione], the “Degradation activity* (highest amount of degradation observed at any dosage; tau protein remaining)” value is reported as “B (≤80% and >50% tau protein remaining after 72 hours of incubation with the test compound)”.
In the case of `Cn1c2ccncc2c2ccc(-c3ccc(O[C@H]4C[C@H](OCC5(COCCCOC6CN(c7ccc8c(c7)C(=O)N(C7CCC(=O)NC7=O)C8=O)C6)COC5)C4)nc3)cc21` (stereo partly drawn) [Compound 169, 2-(2,6-dioxopiperidin-3-yl)-5-(3-(3-((3-(((1r,3r)-3-((5-(5-methyl-5H-pyrido[4,3-b]indol-7-yl)pyridin-2-yl)oxy)cyclobutoxy)methyl)oxetan-3-yl)methoxy)propoxy)azetidin-1-yl)isoindoline-1,3-dione], the “Degradation activity* (highest amount of degradation observed at any dosage; tau protein remaining)” value is reported as “A (≤50% tau protein remaining after 72 hours of incubation with the test compound)”.
In the case of `Cn1c2ccncc2c2ccc(-c3ccc(O[C@H]4C[C@@H](OCCCOCCCOC5CN(c6ccc7c(c6)C(=O)N(C6CCC(=O)NC6=O)C7=O)C5)C4)nc3)cc21` (stereo partly drawn) [Compound 170, 2-(2,6-dioxopiperidin-3-yl)-5-(3-(3-(3-((1 s,3 s)-3-((5-(5-methyl-5H-pyrido[4,3-b]indol-7-yl)pyridin-2-yl)oxy)cyclobutoxy)propoxy)propoxy)azetidin-1-yl)isoindoline-1,3-dione], the “Degradation activity (tau protein remaining; highest amount of degradation observed at any dosage)” value is reported as “A (≤50% tau protein remaining after 72 hours of incubation with the test compound)”.
